Drawing on PubChem BioAssay AID485351 (Sanford-Burnham Center for Chemical Genomics, 2010), this text covers IC50 for 79 compounds.

For orientation: IC50 means the point on the concentration scale where inhibition reaches its midpoint.

SMILES strings stand for the structures. Where “and” joins values, the source holds several entries; their conditions need not be identical. Identical values can stand only once. Calls of active or inactive are those of the source. How the calls were made is not given here.

The target in this assay is Ubiquitin-conjugating enzyme E2 N (Homo sapiens) (UniProt P61088). Description: Ubc13/Uev1a ubiquitination inhibitors, SAR follow-up, biochemical, TR-FRET, set 2 (AID 485351). Conditions: in vitro Ubc13-Uev1a ubiquitination. Background: TR-FRET usually uses a lanthanide donor and a delayed reading to cut background.
Ubiquitin-conjugating enzyme E2 N (Homo sapiens), sequence (P61088 whole entry, looked up): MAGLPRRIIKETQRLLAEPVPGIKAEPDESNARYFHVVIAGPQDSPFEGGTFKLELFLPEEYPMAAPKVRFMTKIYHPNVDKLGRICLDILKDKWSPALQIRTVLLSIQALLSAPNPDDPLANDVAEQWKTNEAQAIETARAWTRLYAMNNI
On to `CCCN1C(=O)C(NC(C)=O)c2cc(OC)ccc21` (centres undefined), for which the IC50 was > 100 µM (inactive).

For the compound `COc1ccc2c(c1)C(NC(C)=O)C(=O)N2CC1COc2ccccc2O1` (centres undefined), the IC50 is > 100 µM (inactive).

For `CCCCn1c(NC(=O)c2ccco2)c(C#N)c2nc3ccccc3nc21`, the 50% inhibitory concentration (IC50) was 0.777 µM.

In the case of `Cc1cc(C)c2c(c1)C(=O)C(=O)N2CCN1CCOCC1`, the IC50 was > 100 µM (inactive).

For the compound `C=CC[C@@H](Nc1ccc(C)cc1)C12C=CC(O1)C(C(=O)OC)=C2C(=O)OC` (some centres undefined), the IC50 was > 100 µM (inactive).

Take `C=CC[C@H](Nc1ccc(OC)cc1)C12C=CC(O1)C(C(=O)OC)=C2C(=O)OC` (some centres undefined): the IC50 was > 100 µM (inactive).

For the compound `COc1cc(/C=C2\C(=O)N(c3ccccc3)N=C2C)ccc1OC(=O)c1cccs1`, the IC50 was > 100 µM (inactive).

Regarding `C=CC[C@H](Nc1ccc(Cl)cc1)C12C=CC(O1)C(C(=O)OC)=C2C(=O)OC` (some centres undefined), the IC50 was > 100 µM (inactive).

Regarding `COc1ccc2c(c1)C(NC(C)=O)C(=O)N2CCOc1ccccc1` (centres undefined), the IC50 is > 100 µM (inactive).

`COc1ccc2c(c1)C(=O)C(=O)N2CCN1CCOCC1`: the IC50 is > 100 µM (inactive).

`COc1ccc2c(c1)C(NC(C)=O)C(=O)N2CCc1ccccc1` (centres undefined): the IC50 is > 100 µM (inactive).

As for `CCCC1=NN(c2ccc(C(=O)O)cc2)C(=O)/C1=C/c1ccc(OCc2ccccc2)c(OC)c1`, the IC50 was > 100 µM (inactive).

Take `CCCC1=NN(c2ccccc2)C(=O)/C1=C\c1ccc(O)cc1`: the IC50 was > 100 µM (inactive).

Turning to `COc1ccc(CN2C(=O)C(NC(C)=O)c3ccccc32)cc1` (centres undefined), the IC50 is > 100 µM (inactive).

As for `COC(=O)C1=C(C(=O)OC)C2(C(Cc3ccc(F)cc3)Nc3ccccc3)C=CC1O2` (centres undefined), the IC50 was > 100 µM (inactive).

In the case of `CCCCn1c(NC(C)=O)c(C#N)c2nc3ccccc3nc21`, the IC50 was 0.669 µM.

As to `C=CCn1c(NC(=O)c2ccccc2Cl)c(C#N)c2nc3ccccc3nc21`, the concentration for half-maximal inhibition (IC50) is 1.11 µM.

For the compound `C=C[C@@H](Nc1ccccc1)C12C=CC(O1)C(C(=O)OC)=C2C(=O)OC` (some centres undefined), the IC50 is > 100 µM (inactive).

Turning to `COCCn1c(NC(=O)c2ccc(Cl)cc2)c(S(=O)(=O)c2ccc(C)cc2)c2nc3ccccc3nc21`, the 50% inhibitory concentration (IC50) is 1.74 µM.

On to `COC(=O)C1=C(C(=O)OC)C2([C@H](Cc3ccc(C)cc3)Nc3ccccc3)C=CC1O2` (some centres undefined), for which the IC50 was > 100 µM (inactive).

Take `COC(=O)C1=C(C(=O)OC)C2([C@@H](C)Nc3ccccc3)C=CC1O2` (some centres undefined): the IC50 is > 100 µM (inactive).

For the compound `CCCCn1c(NC(=O)c2ccc(OC)cc2)c(S(=O)(=O)c2ccc(C)cc2)c2nc3ccccc3nc21`, the IC50 is 0.752 µM.

With `COC(=O)C1=C(C(=O)OC)C2([C@@H](C)Nc3ccc(C)cc3)C=CC1O2` (some centres undefined), the IC50 was > 100 µM (inactive).

In the case of `CCC(=O)Nc1c(S(=O)(=O)c2ccccc2)c2nc3ccccc3nc2n1Cc1ccccc1`, the concentration for half-maximal inhibition (IC50) is 0.755 µM.

Consider `CCCCn1c(NC(=O)c2ccco2)c(S(=O)(=O)c2ccc(C)cc2)c2nc3ccccc3nc21`, for which the half-maximal inhibitory concentration (IC50) was 0.809 µM.

Turning to `COC(=O)[C@@H]1C2CCC([C@@H](Cc3ccccc3)Nc3ccccc3)(O2)[C@@H]1C(=O)OC` (some centres undefined), the IC50 is > 100 µM (inactive).

Consider `N#Cc1c(NC(=O)c2ccccc2Cl)n(Cc2ccccc2)c2nc3ccccc3nc12`, for which the IC50 was 2.78 µM.

On to `C=CC[C@@H](Nc1ccc(Cl)cc1)C12C=CC(O1)C(C(=O)OC)=C2C(=O)OC` (some centres undefined), for which the IC50 was > 100 µM (inactive).

With `COC(=O)C1=C(C(=O)OC)C2([C@H](Cc3ccccc3)Nc3ccccc3)C=CC1O2` (some centres undefined), the IC50 was > 100 µM (inactive).

On to `CCCCn1c(NC(=O)c2cccc(Cl)c2)c(C#N)c2nc3ccccc3nc21`, for which the 50% inhibitory concentration (IC50) is 1.34 µM.

Take `CCCCn1c(N)c(S(=O)(=O)c2ccc(C)cc2)c2nc3ccccc3nc21`: the 50% inhibitory concentration (IC50) is 2.08 µM and 0.875 µM.

Consider `C=C[C@H](Nc1ccccc1)C12C=CC(O1)C(C(=O)OC)=C2C(=O)OC` (some centres undefined), for which the half-inhibitory concentration (IC50) was 51.5 µM.

In the case of `CCCCNC(=O)c1c(NC(=O)c2ccccc2)n(Cc2ccccc2)c2nc3ccccc3nc12`, the IC50 was 18.8 µM.

`CCCCn1c(NC(=O)c2ccccc2Cl)c(C#N)c2nc3ccccc3nc21`: the concentration for half-maximal inhibition (IC50) is 0.697 µM and 1.01 µM.

As for `CCCCn1c(NS(=O)(=O)c2ccccc2)c(S(=O)(=O)c2ccc(C)cc2)c2nc3ccccc3nc21`, the 50% inhibitory concentration (IC50) was 0.741 µM.

As to `COC(=O)C1=C(C(=O)OC)C2([C@@H](Cc3ccccc3)Nc3ccccc3)C=CC1O2` (some centres undefined), the IC50 was > 100 µM (inactive).

Regarding `COC(=O)C1=C(C(=O)OC)C2([C@@H](Cc3ccc(C)cc3)Nc3ccccc3)C=CC1O2` (some centres undefined), the IC50 was > 100 µM (inactive).

As for `CCCCn1c(NC(=O)c2ccccc2)c(S(=O)(=O)c2ccc(C)cc2)c2nc3ccccc3nc21`, the concentration for half-maximal inhibition (IC50) is 1.95 µM and 1.1 µM.

For the compound `CCCCn1c(NC(=O)C2CCCCC2)c(C#N)c2nc3ccccc3nc21`, the IC50 is 0.499 µM.

Regarding `COC(=O)C1=C(C(=O)OC)C2([C@@H](Cc3ccc(OC)cc3)Nc3ccccc3)C=CC1O2` (some centres undefined), the IC50 is > 100 µM (inactive).

Consider `CCC[C@H](Nc1ccccc1)C12C=CC(O1)C(C(=O)OC)=C2C(=O)OC` (some centres undefined), for which the IC50 was > 100 µM (inactive).

For the compound `COC(=O)C1=C(C(=O)OC)C2([C@@H](C)Nc3ccc(Cl)cc3)C=CC1O2` (some centres undefined), the IC50 was > 100 µM (inactive).

Take `COC(=O)C1=C(C(=O)OC)C2([C@@H](Cc3ccccc3)Nc3ccc(Cl)cc3)C=CC1O2` (some centres undefined): the IC50 is > 100 µM (inactive).

Consider `CC(=O)NC1C(=O)N(CCN2CCOCC2)c2ccc(C)cc21` (centres undefined), for which the IC50 is > 100 µM (inactive).

Consider `CCCCn1c(NC(=O)CC)c(S(=O)(=O)c2ccc(C)cc2)c2nc3ccccc3nc21`, for which the 50% inhibitory concentration (IC50) was 0.742 µM.

Regarding `C=CC[C@@H](N(Cc1ccccc1)/C(=C\C(=O)OC)C(=O)OC)C12C=CC(O1)C(C(=O)OC)=C2C(=O)OC` (some centres undefined), the IC50 was > 100 µM (inactive).

For the compound `CCCCCn1c(NC(=O)c2ccco2)c(C(=O)OCC)c2nc3ccccc3nc21`, the IC50 is 0.501 µM.

As for `CCCC1=NN(c2ccc(C(=O)O)cc2)C(=O)/C1=C/c1ccc(O)cc1`, the IC50 is > 100 µM (inactive).

For `C=CCC(Nc1ccccc1)C12C=CC(O1)C(C(=O)OC)=C2C(=O)OC` (centres undefined), the IC50 is > 100 µM (inactive).

Regarding `COC(=O)C1=C(C(=O)OC)C2([C@H](C)Nc3ccc(Cl)cc3)C=CC1O2` (some centres undefined), the 50% inhibitory concentration (IC50) is 53 µM.

In the case of `C=CCn1c(NS(=O)(=O)c2ccccc2)c(S(=O)(=O)c2ccc(C)cc2)c2nc3ccccc3nc21`, the concentration for half-maximal inhibition (IC50) was 0.769 µM.

In the case of `COC(=O)C1=C(C(=O)OC)C2([C@H](Cc3ccccc3)Nc3ccc(OC)cc3)C=CC1O2` (some centres undefined), the IC50 is > 100 µM (inactive).

Take `COc1cc(/C=C2\C(=O)N(c3ccccc3)N=C2C)ccc1O`: the IC50 is > 100 µM (inactive).

On to `COC(=O)C1=C(C(=O)OC)C2([C@@H](Cc3ccccc3)Nc3ccc(OC)cc3)C=CC1O2` (some centres undefined), for which the IC50 was > 100 µM (inactive).

Consider `c1ccc(CC(Nc2ccccc2)c2ccco2)cc1` (centres undefined), for which the IC50 was > 100 µM (inactive).

As for `C=CC[C@H](Nc1ccc(C)cc1)C12C=CC(O1)C(C(=O)OC)=C2C(=O)OC` (some centres undefined), the IC50 is > 100 µM (inactive).

On to `CCCC1=NN(c2ccccc2)C(=O)/C1=C/c1ccc(OCc2ccc(C(=O)OC)cc2)cc1`, for which the IC50 is > 100 µM (inactive).

Regarding `COCCNC(=O)c1c(NC(=O)c2ccccc2)n(Cc2ccccc2)c2nc3ccccc3nc12`, the IC50 was 0.656 µM.

Turning to `COC(=O)C1=C(C(=O)O)C2C=CC1([C@@H](Cc1ccccc1)Nc1ccccc1)O2` (some centres undefined), the IC50 is > 100 µM (inactive).

Take `CCCCn1c(NC(=O)c2ccccc2Cl)c(S(=O)(=O)c2ccccc2)c2nc3ccccc3nc21`: the half-maximal inhibitory concentration (IC50) is 1.68 µM.

As for `C=CC[C@H](N(Cc1ccccc1)/C(=C\C(=O)OC)C(=O)OC)C12C=CC(O1)C(C(=O)OC)=C2C(=O)OC` (some centres undefined), the IC50 was > 100 µM (inactive).

For the compound `CCCCn1c(NC(=O)c2ccc(F)cc2)c(S(=O)(=O)c2ccc(C)cc2)c2nc3ccccc3nc21`, the IC50 is 1.32 µM.

For `COC(=O)C1=C(C(=O)OC)C2([C@H](C)Nc3ccccc3)C=CC1O2` (some centres undefined), the half-maximal inhibitory concentration (IC50) was 80.2 µM.

Turning to `C=CC[C@@H](Nc1ccc(OC)cc1)C12C=CC(O1)C(C(=O)OC)=C2C(=O)OC` (some centres undefined), the half-maximal inhibitory concentration (IC50) is 78.9 µM.

Take `N#Cc1c(NC(=O)c2ccccc2Cl)n(C2CCCCC2)c2nc3ccccc3nc12`: the IC50 was 2.84 µM.

Consider `COC(=O)C1=C(C(=O)OC)C2([C@@H](Cc3ccccc3)Nc3ccc(C)cc3)C=CC1O2` (some centres undefined), for which the IC50 is > 100 µM (inactive).

As to `COC(=O)C1=C(C(=O)OC)C2([C@@H](C)Nc3ccc(OC)cc3)C=CC1O2` (some centres undefined), the IC50 is > 100 µM (inactive).

As to `C=CC[C@@H](Nc1ccccc1)C12C=CC(O1)C(C(=O)OC)=C2C(=O)OC` (some centres undefined), the IC50 is > 100 µM (inactive).

Regarding `CCC[C@@H](Nc1ccccc1)C12C=CC(O1)C(C(=O)OC)=C2C(=O)OC` (some centres undefined), the IC50 is > 100 µM (inactive).

On to `CCCCn1c(NC(=O)c2ccccc2)c(C#N)c2nc3ccccc3nc21`, for which the half-inhibitory concentration (IC50) is 1.2 µM and 1 µM.

Take `COC(=O)C=C(NC(CO)(CO)CO)C(=O)OC`: the IC50 is 87.2 µM.

`CCCC1=NN(c2ccc(C(=O)O)cc2)C(=O)/C1=C/c1ccc(OCc2ccccc2)cc1`: the IC50 was > 100 µM (inactive).

As to `COc1cc(/C=C2\C(=O)N(c3ccccc3)N=C2C)ccc1OCc1ccccc1`, the IC50 is > 100 µM (inactive).

In the case of `Nc1c(C(=O)NCc2ccco2)c2nc3ccccc3nc2n1Cc1ccccc1`, the IC50 is 0.815 µM.

For the compound `COC(=O)C1=C(C(=O)OC)C2([C@H](Cc3ccccc3)Nc3ccc(C)cc3)C=CC1O2` (some centres undefined), the IC50 was > 100 µM (inactive).

For `CCCCn1c(NC(=O)c2ccc(Cl)cc2)c(C#N)c2nc3ccccc3nc21`, the IC50 is 0.859 µM.

For the compound `COC(=O)C1=C(C(=O)OC)C2([C@H](Cc3ccccc3)Nc3ccc(Cl)cc3)C=CC1O2` (some centres undefined), the IC50 was > 100 µM (inactive).

With `CCCCn1c(NC(=O)c2ccc(F)cc2)c(C#N)c2nc3ccccc3nc21`, the half-inhibitory concentration (IC50) is 1.16 µM.

As to `C=CC[C@H](Nc1ccccc1)C12C=CC(O1)C(C(=O)OC)=C2C(=O)OC` (some centres undefined), the IC50 is > 100 µM (inactive).
